Each structure is given as a SMILES string.

For this test, the system named is Candida. Nature of the test: Antimicrobial in-vivo activity (oral) in mouse candidosis. As to conditions: mice infected i.v. with Candida cells; 100 mg/kg oral one hour before and seven hours after infection; survivors on day 6 p.i.

Protocol: Versuchsbeschreibung: • Mäuse vom Typ SPF-CF1 wurden intravenös mit 1-2 x 10 logaritmisch wachsenden Candida-Zellen, die in physiologischer Kochsalzlösung suspendiert waren, infiziert. Eine Stunde vor und sieben Stunden nach der Infektion wurden die Tiere mit jeweils 100 mg/kg Körpergewicht der Präparate oral behandelt.
+++++ = sehr gute Wirkung = ≥ 90% Überlebende am 6.Tag p.i. ++++ = gute Wirkung = ≥30% Überlebende am 6.Tag p.i. +++ = Wirkung = ≥60% Überlebende am 6.Tag p.i. ++ = schwache Wirkung = ≥40% Überlebende am 6.Tag p.i. + = Spur Wirkung k.W.= keine Wirkung

In the case of `CC(=O)OC(C(Oc1ccc(Cl)cc1C)n1cncn1)C(C)(C)C` (stereo not shown), the Wirkung result is given as “k.W”.

Source of the values: patent publication EP0028689A1, “Antimycotic agents containing acylated triazolyl-gamma-fluoropinacolyl derivatives, and their preparation” (BAYER AG, priority 1979, dated 1981).
